EC50 data for 1 molecule are collected here from patent US5770382A, “Tricyclic retinoids, methods for their production and use” (Ligand Pharmaceuticals, Inc., priority 1995, dated 1998).

Type in all cases: cell-based
The target of one test is T1, RXRγ (Mus musculus, UniProt P28705).
T1 construct: expressed in transfected cells; host or cells: CV-1 (African green monkey kidney fibroblasts)
T1 sequence (P28705 1-463): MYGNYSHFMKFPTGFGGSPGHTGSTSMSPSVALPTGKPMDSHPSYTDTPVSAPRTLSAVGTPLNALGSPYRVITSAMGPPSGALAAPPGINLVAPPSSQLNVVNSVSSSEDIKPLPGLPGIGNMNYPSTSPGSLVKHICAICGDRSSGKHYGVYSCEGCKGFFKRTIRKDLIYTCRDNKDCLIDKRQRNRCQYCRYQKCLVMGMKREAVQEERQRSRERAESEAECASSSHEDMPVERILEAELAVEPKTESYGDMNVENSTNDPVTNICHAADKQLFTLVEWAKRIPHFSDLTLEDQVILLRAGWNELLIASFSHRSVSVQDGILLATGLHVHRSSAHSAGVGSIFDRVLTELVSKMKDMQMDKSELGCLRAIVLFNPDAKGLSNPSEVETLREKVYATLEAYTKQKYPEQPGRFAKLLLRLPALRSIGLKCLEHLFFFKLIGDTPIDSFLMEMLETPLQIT
Description: Co-transfection assay, RXRγ agonist activity. The following applies: CV-1 cells, 40 hours; read-out: RXRγ Pot (potency, EC50).

Another test addresses T2, RARα (Homo sapiens, UniProt P10276).
T2 construct: expressed in transfected cells; host or cells: CV-1 (African green monkey kidney fibroblasts)
T2 sequence (P10276 1-462): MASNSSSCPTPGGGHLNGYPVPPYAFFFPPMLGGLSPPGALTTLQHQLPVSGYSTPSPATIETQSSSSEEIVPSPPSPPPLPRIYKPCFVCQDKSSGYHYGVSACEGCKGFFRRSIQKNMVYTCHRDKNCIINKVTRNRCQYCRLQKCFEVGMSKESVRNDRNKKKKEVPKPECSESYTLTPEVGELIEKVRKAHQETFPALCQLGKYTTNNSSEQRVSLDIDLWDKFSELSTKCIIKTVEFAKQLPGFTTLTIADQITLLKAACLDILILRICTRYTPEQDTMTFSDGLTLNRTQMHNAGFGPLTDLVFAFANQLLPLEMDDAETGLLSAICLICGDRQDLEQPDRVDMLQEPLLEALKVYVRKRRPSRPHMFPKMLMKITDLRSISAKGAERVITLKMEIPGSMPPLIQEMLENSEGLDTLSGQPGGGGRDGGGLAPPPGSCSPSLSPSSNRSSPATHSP
Briefly: Co-transfection assay, RARα agonist activity. The conditions noted are these: CV-1 cells, 40 hours; read-out: RARα Pot (potency, EC50).

Another test deals with T3, RXRα (Homo sapiens, UniProt P19793).
T3 construct: expressed in transfected cells; host or cells: CV-1 (African green monkey kidney fibroblasts)
T3 sequence (P19793 1-462): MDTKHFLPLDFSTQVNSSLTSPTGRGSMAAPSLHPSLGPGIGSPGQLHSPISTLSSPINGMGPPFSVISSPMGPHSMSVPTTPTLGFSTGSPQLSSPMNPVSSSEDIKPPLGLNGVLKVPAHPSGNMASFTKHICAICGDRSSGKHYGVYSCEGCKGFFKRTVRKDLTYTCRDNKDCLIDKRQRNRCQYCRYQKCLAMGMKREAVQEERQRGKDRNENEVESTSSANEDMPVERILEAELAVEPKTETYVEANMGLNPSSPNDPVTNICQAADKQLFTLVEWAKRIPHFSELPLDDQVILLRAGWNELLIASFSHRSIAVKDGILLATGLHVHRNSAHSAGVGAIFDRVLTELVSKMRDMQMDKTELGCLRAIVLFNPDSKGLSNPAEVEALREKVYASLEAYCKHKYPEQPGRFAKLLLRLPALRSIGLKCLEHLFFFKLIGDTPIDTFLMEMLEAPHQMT
Briefly: Co-transfection assay, RXRα agonist activity. The following applies: CV-1 cells, 40 hours; read-out: RXRα Pot (potency, EC50).

The target of another test is T4, RARγ (Homo sapiens, UniProt P13631).
T4 construct: expressed in transfected cells; host or cells: CV-1 (African green monkey kidney fibroblasts)
T4 sequence (P13631 1-454): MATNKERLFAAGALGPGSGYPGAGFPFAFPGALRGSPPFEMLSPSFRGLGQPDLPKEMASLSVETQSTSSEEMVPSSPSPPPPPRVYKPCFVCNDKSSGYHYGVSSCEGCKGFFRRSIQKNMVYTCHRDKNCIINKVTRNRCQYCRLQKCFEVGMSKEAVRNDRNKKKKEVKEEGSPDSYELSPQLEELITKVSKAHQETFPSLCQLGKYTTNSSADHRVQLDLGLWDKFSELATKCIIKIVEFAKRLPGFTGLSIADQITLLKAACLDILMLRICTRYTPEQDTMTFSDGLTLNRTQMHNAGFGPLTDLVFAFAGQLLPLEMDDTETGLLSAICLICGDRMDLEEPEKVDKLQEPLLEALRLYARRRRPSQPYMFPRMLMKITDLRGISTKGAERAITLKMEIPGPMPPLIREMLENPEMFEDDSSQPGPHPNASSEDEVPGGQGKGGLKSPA
Briefly: Co-transfection assay, RARγ agonist activity. The following applies: CV-1 cells, 40 hours; read-out: RARγ Pot (potency, EC50).

Turning to `CC(/C=C/C=C1/CC(C)(C)Oc2cc3c(cc21)C(C)(C)CCC3(C)C)=C\C(=O)O` [Compound 104b, (2E,4E)-3-Methyl-6-(2,3,6,7,8,9-hexahydro-2,2,6,6,9,9-hexamethylbenzo[b]-chromen-4-ylidene)-hexa-2,4-dienoic acid], the 50% effective concentration (EC50) at RXRγ is 11 nM; on RARα, greater than 10000 nM; on RXRα it was 18 nM; at RARγ it was 83 nM.
